Reference: PubChem BioAssay (NCI)
“And” between values parts separate entries of the source, which are not always exact repeats. Identical values can stand only once.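 Following 48 hours of exposure in 96-well plates, responses at five concentrations were used to interpolate endpoints linearly. Here, GI50 denotes the concentration required for 50% inhibition of growth. The concentration for full growth arrest is given as TGI.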

The compounds below were run on MDA-MB-468 breast (assay: growth of human tumour cells (NCI), 48 h).
`O=C(CCN1CCCC1)Nc1ccc2c(NCCCCc3ccccc3)c3ccccc3nc2c1` was tested, and the GI50 was 811 nM and the TGI was 2120 nM. In the case of `COC(=O)c1c(-c2ccccc2)csc1NC(=O)c1c(-c2ccccc2)noc1C`, the GI50 was 3200 nM and the TGI was over 100000 nM. In the case of `COc1cccc2c1C(=O)c1c(O)c3c(c(O)c1C2=O)C[C@@](O)(C(C)=O)C[C@@H]3OC1CC(N)C(O)C(C)O1` (some centres not stated), the GI50 was 62.3 nM and the TGI was 313 nM. `CSC(=S)N/N=C(\C)c1ccccn1` gave a GI50 of 68.5 nM and a TGI of 1210 nM. With `Cn1c(=O)c(F)c(Nc2ccc(I)cc2F)c2c(=O)n(C[C@@H](O)CO)cnc21` the GI50 was 1800 nM and 590 nM and the TGI was 8660 nM and > 2090 nM. `Cc1ccccc1NC(=O)NC(CC(N)=O)c1ccc2c(c1)nc(-c1cccc(Oc3ccc(C(C)(C)C)cc3)c1)n2CCCN1CCCCC1C` (configuration not stated) was tested, and the GI50 was 1780 nM and the TGI was 3280 nM. `COc1ccc(C(=O)Nc2cccc(C3CC(=O)c4c(cc(OC)c(OC)c4OC)O3)c2)cc1` (configuration not stated) gave a GI50 of 940 nM and a TGI of over 100000 nM. For `Cc1ccc(/C=C2\CCOC2=O)cc1`, the GI50 was over 100000 nM and the TGI was over 100000 nM. `C=C1C(=O)O[C@H]2[C@H]1CC/C(Cn1cc(CCC)nn1)=C\CC[C@@]1(C)O[C@@H]21` showed a GI50 of 3650 nM and a TGI of 14900 nM. With `CCN1C(=O)N(c2c(F)c(OC)cc(OC)c2F)Cc2cnc3[nH]c(CN4CCOCC4)cc3c21` the GI50 was 2290 nM and the TGI was 55900 nM. With `Cc1ccc2c(n1)C(=O)C(Cl)=C(Nc1ccc(C(C)C)cc1)C2=O` the GI50 was 512 nM and the TGI was 1850 nM. With `CCOc1ccc2c(c1)/C(=C\C=C\C1CC(C)C3CC(OCC)CCC3N1CC)CC(C)N2CC` (configuration not stated) the GI50 was 280 nM and the TGI was 1110 nM. Compound `CCCCCCCCSC1=CC(=O)C(OC)=C(OC)C1=O` has a GI50 of 1430 nM and a TGI of 2970 nM. With `Cc1nc2cc(O)c(O)cc2cc1Oc1ccc(NC(=O)Nc2ccc(Cl)c(Cl)c2)cc1` the GI50 was 6990 nM and the TGI was 17400 nM. With `Fc1ccc(Nc2nc(Nc3ccc(-c4nc5ccccc5[nH]4)cc3)nc(N3CCCC3)n2)cc1` the GI50 was 2750 nM and the TGI was 6740 nM. `Nc1nc(N)c2c(n1)NC(c1ccccc1)CC(c1ccc(Nc3nc(NCCO)nc(Nc4ccc(Cl)cc4)n3)cc1)=N2` (configuration not stated) showed a GI50 of 1510 nM and a TGI of 2990 nM. For `C[n+]1c2ccccc2c(NC2CCNCC2)c2[nH]c3ccccc3c21`, the GI50 was 200 nM and the TGI was 1260 nM. `COC(=O)c1ccc2c(c1)nc(-c1ccc(Cl)cc1)n2-c1cc(C(C)(C)C)[nH]n1` showed a GI50 of 2400 nM and a TGI of 7980 nM. `NC(=O)NC(=O)CI` gave a GI50 of 2480 nM and a TGI of 7730 nM. Work on `Cn1c(=O)c(Cc2ccc(F)cc2F)cc2cnc(NC3CCOCC3)nc21` yielded a GI50 of 19600 nM and a TGI of over 25000 nM. `CS(=O)(=O)c1nccc(-c2c(-c3cccc(OCc4ccc(Cl)c(C(F)(F)F)c4)c3)nc3sccn23)n1` showed a GI50 of 859 nM and a TGI of 1660 nM. Work on `CN(C)CCn1cc(-c2ccc3c(Nc4ccc(CC(=O)Nc5cccc(F)c5)cc4)ncnc3c2)cn1` yielded a GI50 of 1260 nM and a TGI of 2850 nM. `CCCCOC(=O)N[C@H]1CCc2cc(OC)c(OC)c(OC)c2-c2ccc(SC)c(=O)cc21` showed a GI50 of under 10 nM and a TGI of 19400 nM. In the case of `O=C1NC(=NCc2ccccn2)S/C1=C\c1ccc2ncccc2c1`, the GI50 was 5970 nM and the TGI was over 25000 nM. With `CN1CCC(n2cc(Nc3ncc4c(=O)n(-c5c(Cl)cccc5Cl)cc(Br)c4n3)cn2)CC1` the GI50 was 937 nM and the TGI was 7270 nM. In the case of `C=C1C(=O)O[C@H]2[C@H]1CC/C(COC(=O)CCC(=O)OC/C1=C/CC[C@@]3(C)O[C@H]3[C@H]3OC(=O)C(=C)[C@@H]3CC1)=C\CC[C@@]1(C)O[C@@H]21`, the GI50 was 1560 nM and the TGI was 4830 nM. With `C=C1C(=O)O[C@@H]2/C=C(/C)C3=CC(=O)[C@@](C)(C[C@H](OC(=O)/C(C)=C\C)[C@@H]12)O3` the GI50 was 1140 nM and the TGI was 5030 nM. Compound `COc1ccc(/C=N/NC2=NC3C(S2)N(C)C(=O)N3C)cc1` (configuration not stated) has a GI50 of 1950 nM and a TGI of 5350 nM. Compound `COc1ccc(/C=C(/C(=O)N2CCNCC2)c2cc(OC)c(OC)c(OC)c2)cc1O` has a GI50 of 2270 nM and a TGI of 9710 nM. `COc1ccc(C2CC(c3cc(OC)c(OC)c(OC)c3)=NN2)cc1` (configuration not stated) gave a GI50 of 4350 nM and a TGI of 64500 nM. Compound `COc1cc(-c2ccc(-c3ccc(C(=N)N)s3)s2)cc(OC)c1OC` has a GI50 of 1820 nM and a TGI of 3700 nM. Compound `Oc1ccc2ccccc2c1/C=N\Nc1ccccn1` has a GI50 of 1590 nM and a TGI of 4870 nM. In the case of `Cc1ccc(/C=C(\C#N)n2nnc3cc(F)c(F)cc32)cc1`, the GI50 was 10300 nM and the TGI was 44400 nM. With `Cn1c2ccccc2c2c3c(c4c5ccccc5n(CCCCCC#N)c4c21)C(=O)N(O)C3=O` the GI50 was 683 nM and the TGI was 6120 nM. `O=C1NC(=NCCc2ccccc2Cl)S/C1=C\c1ccc2ncccc2c1` was tested, and the GI50 was 2170 nM and the TGI was over 18300 nM. For `Nc1nc(Cl)nc2c1ncn2C1O[C@H](CO)[C@@H](O)[C@@H]1F` (some centres not stated), the GI50 was 387 nM and the TGI was 21800 nM. In the case of `CNCCNc1nc2ccccc2c2c(=O)c3cccc(OC)c3sc12`, the GI50 was 1450 nM and the TGI was 3060 nM. `CC(C)(C)CC(C)(C)Cc1ccc(OCCOCC[N+](C)(C)Cc2ccccc2)cc1` gave a GI50 of 235 nM and a TGI of 1200 nM. With `COc1ccc(-n2c(N)c(C(=O)NCCN3CCOCC3)c3nc4ccccc4nc32)cc1OC` the GI50 was 17900 nM and the TGI was over 100000 nM. For `O=[N+]([O-])c1ccc2[nH]cc(-c3c4ccccc4cc4[nH]c5ccc([N+](=O)[O-])cc5c34)c2c1`, the GI50 was 2500 nM and the TGI was 7710 nM. `COc1ccccc1Nc1nc(-c2cc3cccc(C(F)(F)F)c3oc2=O)cs1` gave a GI50 of 97 nM and a TGI of 710 nM.
